From publication PMC6048268, “Resveratrol Inhibits Key Steps of Steroid Metabolism in a Human Estrogen-Receptor Positive Breast Cancer Model: Impact on Cellular Proliferation” (Frontiers in Pharmacology, 2018)
Values joined by “and” are separate entries in the source; they are usually repeats but may differ in a detail not shown here. Identical values can stand only once.

Legend:
[1] = tested on: MCF-7 cells; settings: for mean formation rate: MCF-7, 100 nM DHEA; for mean formation rate / Vmax / decrease of native hormone precursor: 48 h; for Vmax: MCF-7, precursor DHEA or E1 0–100 nM, Michaelis–Menten; for decrease of native hormone precursor: MCF-7, 100 nM
Method: (§1) Briefly, cartridges were preconditioned with 2 × 1.0 ml acetonitrile and 3 × 1.0 ml ammonium acetate buffer (10 mM, pH = 5.0), and the samples were loaded onto the columns. After washing with 1 × 1.0 ml ammonium acetate buffer (10 mM, pH = 5.0) and 2 × 1.0 ml acetonitrile/ammonium acetate buffer (10 mM, pH 5.0) 10:90 (v/v), the analytes were eluted using 2 × 650 μl acetonitrile/ammonium acetate buffer (10 mM, pH = 5.0) 95:5 (v/v) and evaporated until dry. Subsequently, samples were reconstituted in 270 μl acetonitrile/ammonium acetate buffer (10 mM, pH = 5.0) 25:75 (v/v) and stored at -80°C until further LC–HRMS analysis.
(§2) After media collection, cell monolayers were washed five times with 2.0 ml DPBS, detached using 400 μl TrypLE® solution (37°C, 5 min), mixed with 600 μl DPBS and transferred into sample vials. Aliquots of these suspensions (100 μl each) were diluted and counted using the Casy® TT Cell Counter to determine the exact number of cells per sample well. The remaining cell suspensions (900 μl each) were gently centrifuged (1000 rpm, 8 min), and the supernatants were discarded. The cell pellets were subsequently resuspended in 100 μl aqueous ammonium acetate buffer (10 mM, pH = 5.0) and lysed by five freeze-thaw-cycles in liquid nitrogen (3 min each), followed by thawing at ambient temperature. Ammonium acetate buffer (1000 μl) was added, and the suspensions were centrifuged (14000 rpm, 5 min). Subsequently, the supernatants were concentrated using the same SPE protocol as described above. All processed samples were then stored at -80°C until further LC–HRMS analysis. For each condition, three biologically independent experiments were performed; the reported values represent the overall means ± SD of all values.
(§3) LC was performed with an UltiMate 3000 RSLC-series system coupled to a maXis HD ESI-Qq-TOF mass spectrometer (Bruker Corporation, Bremen, Germany). A Phenomenex Luna® 3 μm C18(2) 100 Å LC column (250 mm × 4.6 mm I.D.; Phenomenex, Inc., Torrance, CA, United States), preceded by a Hypersil® BDS-C18 guard column (5 μm, 10 mm × 4.6 mm I.D.; Thermo Fisher Scientific, Inc.) was used for the separation of the analytes at a flow rate of 1.0 ml/min and a temperature of 43°C. […] The ESI ion source settings were as follows: capillary voltage: -4.5 kV; dry gas flow rate: 8.0 l/min N2; nebulizer: 1.0 bar N2; and dry temperature: 200°C. The ion transfer parameters were set to 400 Vpp funnel RF and 300 Vpp multipole RF, the quadrupole ion energy was 8.0 eV, and the collision cell parameters were as follows: collision RF, 1100 Vpp; collision energy, 10.0 eV; transfer time, 38 μs; and pre-pulse storage, 18 μs. In the range of m/z 150–500, full-scan mass spectra were recorded.
(§4) The modes of inhibition were subsequently determined from Lineweaver–Burk plots, and the corresponding Ki values were calculated from Dixon plots using GraphPad Prism 6.0.

[2] = tested on: MDA-MB-231 cells; settings: for mean formation rate: MDA-MB-231, 100 nM DHEA; for mean formation rate / Km / Vmax / decrease of native hormone precursor: 48 h; for Km / Vmax: MDA-MB-231, precursor DHEA or E1 0–100 nM, Michaelis–Menten; for decrease of native hormone precursor: MDA-MB-231, 100 nM
Method: as §1, §2, §3, §4

[3] = tested on: steroid metabolism in MCF-7 cells; assay: Inhibition of steroid metabolism by RES in MCF-7 cells (LC–HRMS); settings: for formation rate in the presence of RES: 48 h
Method: as §1, §2, §3, §4

[4] = tested on: MDA-MB-231 cells; assay: Cell proliferation, Casy cell counting, MDA-MB-231; assay type: cell-based, human; settings: 0–100 nM, 48 h, hormone-deprived
Method: (§5) MDA-MB-231 and MCF-7 breast cancer cells were purchased from the American Type Culture Collection (ATCC; Manassas, VA, United States) and routinely cultivated at 37°C (95% humidity and 5% CO2) in phenolred-free Dulbecco’s modified Eagle medium F-12 (DMEM/F-12), fortified with 1% PenStrep®-solution and 10% fetal bovine serum (Invitrogen; Thermo Fisher Scientific, Inc., Waltham, MA, United States). All experiments were performed during the exponential growth phase of both cell lines. For the experiments, cells were seeded in 6-well-plates at a density of 1.0 × 10^6 cells per well and allowed to attach for 24 h.
(§6) Prior to cell counting with a Casy® TT Cell Counter (OLS OMNI Life Science, Bremen, Germany), the supernatant medium was removed and cells were detached using 400 μl TrypLe® solution (Invitrogen). All experiments were performed in triplicate, and the data were reported as the means ± standard deviation of all values.

[5] = tested on: MCF-7 cells; assay: Cell proliferation, Casy cell counting, MCF-7; assay type: cell-based, human; settings: 48 h; for cell number: 100 nM hormone precursor
Method: as §5, §6

Row | Structure (SMILES) | mean formation rate [1] [fmol/10^6 cells/h] | Vmax [1] | mean formation rate [2] [fmol/10^6 cells/h] | Km [2] [µM] | Vmax [2] [fmol/10^6 cells/h] | Km ([3]; MCF-7, 0 μM RES) [µM] | Vmax ([3]; MCF-7, 0 μM RES) [fmol/10^6 cells/h] | Km ([3]; MCF-7, 5 μM RES) [µM] | Km ([3]; MCF-7, 10 μM RES) [µM] | Vmax ([3]; MCF-7, 10 μM RES) | Km ([3]; MCF-7, 25 μM RES) [µM] | Vmax ([3]; MCF-7, 25 μM RES) | Km ([3]; MCF-7, 50 μM RES) [µM] | Vmax ([3]; MCF-7, 50 μM RES) | Km ([3]; MCF-7, 100 μM RES) [µM] | Vmax ([3]; MCF-7, 100 μM RES) | Vmax ([3]; MCF-7, 5 μM RES) | effect of hormone precursor on cell growth [4] | cell number [5] | decrease of native hormone precursor [1] [%] | other results
1 | C[C@]12CC[C@H]3[C@@H](CCC4=CC(=O)CC[C@@]43C)[C@@H]1CC[C@@H]2O [T, testosterone] | 4.78 ± 0.38 | 9.96 ± 1.42^∗ fmol/10^6 cells/h | 57.1 ± 6.2 | 0.0563 ± 0.0214 | 91.2 ± 15.9 | 0.107 ± 0.0063 | 9.95 ± 0.42 | 0.107 ± 0.0059 | 0.107 ± 0.0038 | 18.4 ± 0.7^∗ fmol/10^6 cells/h | 0.106 ± 0.0024 | 26.7 ± 0.4^∗ fmol/10^6 cells/h | 0.106 ± 0.004 | 35.9 ± 0.8^∗ fmol/10^6 cells/h | 0.103 ± 0.0048 | 39.7 ± 1.1^∗ fmol/10^6 cells/h | – | – | – | – | formation rate in the presence of RES ([3]; MCF-7, 100 nM DHEA + 100 μM RES): 19.4 ± 1.6 fmol/10^6 cells/h
2 | C[C@]12CC[C@H](OS(=O)(=O)O)CC1=CC[C@@H]1[C@@H]2CC[C@]2(C)C(=O)CC[C@@H]12 [DHEA-S, dehydroepiandrosterone-3-O-sulfate] | 870.0 ± 79.1 | 2873.0 ± 327.4 fmol/10^6 cells/h and 2873.0 ± 527.4 fmol/10^6 cells/h and 2873.0 ± 327.4^∗ fmol/10^6 cells/h | 0.14 ± 0.02 | 0.0554 ± 0.0205 | 0.22 ± 0.04 | 0.329 ± 0.0522 | 2873.0 ± 57.4 | 0.312 ± 0.0719 | 0.324 ± 0.0537 | 2280.1 ± 81.4^∗ fmol/10^6 cells/h | 0.404 ± 0.0931 | 1797.6 ± 48.9^∗ fmol/10^6 cells/h | 0.403 ± 0.0347 | 993.5 ± 74.8^∗ fmol/10^6 cells/h | 0.385 ± 0.0466 | 522.5 ± 54.8^∗ fmol/10^6 cells/h | 2766.2 ± 53.9 fmol/10^6 cells/h | – | – | – | –
3 | C[C@]12CC[C@H](O)CC1=CC[C@@H]1[C@@H]2CC[C@]2(C)C(=O)CC[C@@H]12 [DHEA, dehydroepiandrosterone] | – | – | – | – | – | – | – | – | – | – | – | – | – | – | – | – | – | did not further increase cell growth | 2.69 ± 0.24 × 10^6 cells | 54.9 | remaining precursor concentration in the medium ([1]; MCF-7, from 100.0 nM, after 48 h): 45.1 ± 1.8 nM; decrease of native hormone precursor [2]: 26.8%; remaining precursor concentration in the medium ([2]; MDA-MB-231, from 100 nM, after 48 h): 73.2 ± 2.5 nM
4 | C[C@]12CC[C@@H]3c4ccc(O)cc4CC[C@H]3[C@@H]1CCC2=O [E1, estrone] | – | – | – | – | – | – | – | – | – | – | – | – | – | – | – | – | – | did not further increase cell growth | 3.85 ± 0.36 × 10^6 cells | 12.9 | stimulation of proliferation ([5]; 100 nM): 59.8%; decrease of native hormone precursor [2]: 12.3%
5 | C[C@]12CC[C@@H]3c4ccc(O)cc4CC[C@H]3[C@@H]1CC[C@@H]2O [E2, 17β-estradiol] | – | 628.6 ± 62.0 fmol/10^6 cells/h | – | 0.174 ± 0.0941 | 703.0 ± 164.5 | 0.169 ± 0.0117 | 628.6 ± 72.0 | 0.146 ± 0.0156 | 0.155 ± 0.0097 | 1001.4 ± 43.0^∗ fmol/10^6 cells/h | 0.153 ± 0.0136 | 1079.8 ± 71.4^∗ fmol/10^6 cells/h | 0.172 ± 0.0143 | 1247.3 ± 56.2^∗ fmol/10^6 cells/h | 0.174 ± 0.012 | 1302.2 ± 64.6^∗ fmol/10^6 cells/h | 816.4 ± 76.6^∗ fmol/10^6 cells/h | – | – | – | formation rate ([1]; MCF-7, 100 nM E1, 48 h): 233.9 ± 13.4 fmol/10^6 cells/h; formation rate ([2]; MDA-MB-231, 100 nM E1, 48 h): 258.9 ± 25.1 fmol/10^6 cells/h; formation rate in the presence of RES ([3]; MCF-7, 100 nM E1 + 100 μM RES): 471.5 ± 43.6 fmol/10^6 cells/h
